Targets include D2S (h) (Homo sapiens, UniProt P14416); PDE5 (h) (non-selective) (Homo sapiens, UniProt O76074); GABAB(1b) (h) (Homo sapiens, UniProt Q9UBS5).
The target of a further assay is Ca2+ channel (N) (Rattus norvegicus, UniProt Q02294). Briefly: biochemical. The format is binding.
A further assay concerns the target T1, 5-HT2A (h) (Homo sapiens, UniProt P28223).
T1 construct: host or cells: HEK-293 cells
The format is binding.

The next assay deals with CD-1 mice. In words: Forced swim test. As to conditions: 20 mg/kg IP, 45 min prior, CD-1 mice.
In a further assay the target is T2, 5-HT transporter (h) (Homo sapiens, UniProt P31645).
T2 construct: host or cells: CHO cells
In kind it is binding.

The target of the next assay is T3, V1a (h) (Homo sapiens, UniProt P37288).
T3 construct: host or cells: CHO cells
In kind it is binding.

A further assay addresses p38α kinase (h) (Homo sapiens, UniProt Q16539). In words: enzyme assay. The format is biochemical.
For the next assay, the target named is T4, MT1 (ML1A) (h) (Homo sapiens, UniProt P48039).
T4 construct: host or cells: CHO cells
The format is binding.

Another assay deals with T5, MT3 (ML2) (Mesocricetus auratus, UniProt A0ABM2YAB8).
T5 construct: tissue Cerep; host or cells: hamster brain
T5 sequence (A0ABM2YAB8 1-231): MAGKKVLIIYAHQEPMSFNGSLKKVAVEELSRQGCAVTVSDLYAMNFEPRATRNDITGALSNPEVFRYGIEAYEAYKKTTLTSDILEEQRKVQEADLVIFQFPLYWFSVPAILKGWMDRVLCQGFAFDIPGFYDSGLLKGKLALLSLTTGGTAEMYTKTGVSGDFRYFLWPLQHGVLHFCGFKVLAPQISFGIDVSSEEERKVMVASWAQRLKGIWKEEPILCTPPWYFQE
The format is binding, hamster.

The next assay has as its target T6, M2 (h) (Homo sapiens, UniProt P08172).
T6 sequence (P08172 1-466): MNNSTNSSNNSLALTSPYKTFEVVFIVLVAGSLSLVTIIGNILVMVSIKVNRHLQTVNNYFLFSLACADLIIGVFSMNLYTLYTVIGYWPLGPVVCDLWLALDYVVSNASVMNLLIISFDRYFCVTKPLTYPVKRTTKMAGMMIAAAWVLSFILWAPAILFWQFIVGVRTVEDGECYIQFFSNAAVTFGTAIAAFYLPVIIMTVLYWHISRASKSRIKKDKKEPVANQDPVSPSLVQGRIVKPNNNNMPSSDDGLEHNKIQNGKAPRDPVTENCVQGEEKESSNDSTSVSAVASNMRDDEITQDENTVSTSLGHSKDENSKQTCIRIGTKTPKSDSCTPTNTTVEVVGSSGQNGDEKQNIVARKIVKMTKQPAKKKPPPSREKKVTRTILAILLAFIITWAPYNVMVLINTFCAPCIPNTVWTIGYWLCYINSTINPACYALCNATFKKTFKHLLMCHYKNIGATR

The next assay has as its target PDE3A (h) (Homo sapiens, UniProt Q14432). In words: biochemical.
Another assay concerns the target MMP-9 (h) (Homo sapiens, UniProt P14780). In words: biochemical. The format is biochemical.
In another assay the target is ATPase (Na+/K+). Briefly: enzyme assay. In kind it is biochemical, porcine.
Assay [1] deals with Ca2+ channel (L, diltiazem site) (benzothiazepines) (Rattus norvegicus, UniProt P22002). The format is binding.
Assay [2] has as its target T7, FLT-1 kinase (h) (VEGFR1) (Homo sapiens, UniProt P17948).
T7 construct: host or cells: Sf9 cells
In words: enzyme assay. In kind it is biochemical.

Another assay concerns the target T8, ZAP70 kinase (h) (Homo sapiens, UniProt P43403).
T8 construct: host or cells: insect cells
T8 sequence (P43403 1-619): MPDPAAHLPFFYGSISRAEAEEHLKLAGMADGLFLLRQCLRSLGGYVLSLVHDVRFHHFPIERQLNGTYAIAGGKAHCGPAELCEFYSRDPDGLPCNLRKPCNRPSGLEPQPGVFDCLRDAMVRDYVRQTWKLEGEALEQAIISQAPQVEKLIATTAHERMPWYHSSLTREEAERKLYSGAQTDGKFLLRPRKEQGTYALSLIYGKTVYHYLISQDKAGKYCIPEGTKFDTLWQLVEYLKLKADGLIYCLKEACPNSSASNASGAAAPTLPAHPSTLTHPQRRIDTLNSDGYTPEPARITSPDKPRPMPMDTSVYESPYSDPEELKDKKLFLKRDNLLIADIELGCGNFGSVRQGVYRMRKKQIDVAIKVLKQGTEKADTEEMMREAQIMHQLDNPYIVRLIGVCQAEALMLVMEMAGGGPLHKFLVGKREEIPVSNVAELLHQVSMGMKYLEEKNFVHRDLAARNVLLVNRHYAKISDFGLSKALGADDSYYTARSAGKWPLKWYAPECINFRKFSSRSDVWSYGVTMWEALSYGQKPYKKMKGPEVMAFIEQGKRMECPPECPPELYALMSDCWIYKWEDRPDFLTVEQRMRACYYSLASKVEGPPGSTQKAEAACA
In words: biochemical.

A further assay relates to NMRI mice. Briefly: Locomotor activity. In kind it is in vivo, mouse. The settings on record: 5 mg/kg subcutaneously. The method, then: NMRI mice were habituated to their room for at least 2 weeks after the delivery and kept under standard conditions in groups of 4–5 animals per cage. Food and water were available ad libitum.
Spontaneous motility and rearing were measured by an automated system (Coulbourn Instruments, USA). Animals were introduced into transparent square cages (40 cm length) that are equipped with 2 light barrier systems in order to monitor the movements as well as rearing behavior automatically. The movements of the animals were recorded for 30 minutes. At the end of the experiment, the animals were sacrificed via isofluorane inhalation and subsequent decapitation.

The target of a further assay is T9, 5-HT3 (h) (Homo sapiens, UniProt P46098).
T9 sequence (P46098 24-478): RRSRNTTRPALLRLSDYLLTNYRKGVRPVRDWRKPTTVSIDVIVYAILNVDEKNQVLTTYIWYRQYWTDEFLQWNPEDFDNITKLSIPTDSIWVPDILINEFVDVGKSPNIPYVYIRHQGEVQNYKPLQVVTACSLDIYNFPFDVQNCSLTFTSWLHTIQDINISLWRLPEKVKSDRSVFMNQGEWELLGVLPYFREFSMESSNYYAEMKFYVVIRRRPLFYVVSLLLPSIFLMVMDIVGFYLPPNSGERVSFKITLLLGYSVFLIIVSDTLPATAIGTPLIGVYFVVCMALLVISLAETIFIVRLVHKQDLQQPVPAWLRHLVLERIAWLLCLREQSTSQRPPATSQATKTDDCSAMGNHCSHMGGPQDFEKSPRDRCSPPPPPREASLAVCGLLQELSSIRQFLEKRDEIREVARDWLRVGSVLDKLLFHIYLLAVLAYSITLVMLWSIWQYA

The record followed here is PMC5791972 (PLoS ONE, 2018).

Several values for one entry are separate records, joined by “and”; a condition that tells them apart may be missing. Equal values may be shown once. Starred links: 1 amine or outer side, 2 acyl side, 3 side chain; linkers in the order of their positions; H or OH if unused. Positions of bridges follow the written chain, without caps; N, C: chain ends. Residues, ends and D or L forms follow the SMILES beside them. X1 = O=C(CC1(S[*:2])CCCCC1)[*:1]

Chain of p38α kinase (h) (Q16539 whole entry): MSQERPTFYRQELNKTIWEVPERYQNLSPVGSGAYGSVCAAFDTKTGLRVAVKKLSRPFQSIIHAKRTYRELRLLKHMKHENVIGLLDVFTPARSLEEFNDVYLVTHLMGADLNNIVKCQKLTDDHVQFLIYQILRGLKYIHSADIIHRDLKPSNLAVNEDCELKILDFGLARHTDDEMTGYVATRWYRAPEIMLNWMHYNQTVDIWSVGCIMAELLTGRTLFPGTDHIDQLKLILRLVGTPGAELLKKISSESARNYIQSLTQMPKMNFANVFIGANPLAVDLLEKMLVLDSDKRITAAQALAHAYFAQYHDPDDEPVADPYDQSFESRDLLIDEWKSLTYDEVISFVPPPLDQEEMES
T3 sequence (P37288 whole entry): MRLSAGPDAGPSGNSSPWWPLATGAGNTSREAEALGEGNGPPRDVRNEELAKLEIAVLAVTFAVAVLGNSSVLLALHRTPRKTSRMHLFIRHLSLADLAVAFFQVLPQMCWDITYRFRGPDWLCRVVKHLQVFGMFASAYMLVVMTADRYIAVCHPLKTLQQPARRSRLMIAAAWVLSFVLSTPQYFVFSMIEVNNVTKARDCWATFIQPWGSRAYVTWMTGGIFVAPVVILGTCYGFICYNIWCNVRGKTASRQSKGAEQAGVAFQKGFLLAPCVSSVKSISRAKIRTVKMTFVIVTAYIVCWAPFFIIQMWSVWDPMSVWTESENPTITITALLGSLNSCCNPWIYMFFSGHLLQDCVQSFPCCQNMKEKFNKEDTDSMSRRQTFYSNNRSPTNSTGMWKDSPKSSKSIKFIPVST
Chain of GABAB(1b) (h) (Q9UBS5 1-844 isoform Q9UBS5-2): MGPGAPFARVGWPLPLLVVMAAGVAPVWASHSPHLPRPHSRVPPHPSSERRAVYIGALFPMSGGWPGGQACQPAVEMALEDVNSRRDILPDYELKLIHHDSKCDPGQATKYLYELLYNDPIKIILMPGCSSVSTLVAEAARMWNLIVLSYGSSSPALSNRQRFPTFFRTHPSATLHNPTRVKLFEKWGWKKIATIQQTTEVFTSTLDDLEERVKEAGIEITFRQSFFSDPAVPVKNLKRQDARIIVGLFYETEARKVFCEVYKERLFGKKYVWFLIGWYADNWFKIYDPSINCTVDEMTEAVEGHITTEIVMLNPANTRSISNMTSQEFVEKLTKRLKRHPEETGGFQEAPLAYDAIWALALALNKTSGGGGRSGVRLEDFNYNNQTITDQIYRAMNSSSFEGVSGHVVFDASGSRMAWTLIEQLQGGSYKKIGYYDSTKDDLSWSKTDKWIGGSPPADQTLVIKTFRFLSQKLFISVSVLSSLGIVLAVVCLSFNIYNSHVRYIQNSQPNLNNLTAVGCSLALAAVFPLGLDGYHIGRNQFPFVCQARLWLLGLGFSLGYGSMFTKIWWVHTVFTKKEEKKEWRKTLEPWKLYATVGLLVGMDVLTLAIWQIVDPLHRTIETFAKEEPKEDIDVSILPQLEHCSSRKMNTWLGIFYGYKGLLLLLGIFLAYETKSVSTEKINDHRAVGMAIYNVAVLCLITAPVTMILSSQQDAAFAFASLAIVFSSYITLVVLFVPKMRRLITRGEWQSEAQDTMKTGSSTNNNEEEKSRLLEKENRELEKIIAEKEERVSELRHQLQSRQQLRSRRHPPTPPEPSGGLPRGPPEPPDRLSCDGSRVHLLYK
Chain of GABAB(1b) (h) (O75899 42-941 partner): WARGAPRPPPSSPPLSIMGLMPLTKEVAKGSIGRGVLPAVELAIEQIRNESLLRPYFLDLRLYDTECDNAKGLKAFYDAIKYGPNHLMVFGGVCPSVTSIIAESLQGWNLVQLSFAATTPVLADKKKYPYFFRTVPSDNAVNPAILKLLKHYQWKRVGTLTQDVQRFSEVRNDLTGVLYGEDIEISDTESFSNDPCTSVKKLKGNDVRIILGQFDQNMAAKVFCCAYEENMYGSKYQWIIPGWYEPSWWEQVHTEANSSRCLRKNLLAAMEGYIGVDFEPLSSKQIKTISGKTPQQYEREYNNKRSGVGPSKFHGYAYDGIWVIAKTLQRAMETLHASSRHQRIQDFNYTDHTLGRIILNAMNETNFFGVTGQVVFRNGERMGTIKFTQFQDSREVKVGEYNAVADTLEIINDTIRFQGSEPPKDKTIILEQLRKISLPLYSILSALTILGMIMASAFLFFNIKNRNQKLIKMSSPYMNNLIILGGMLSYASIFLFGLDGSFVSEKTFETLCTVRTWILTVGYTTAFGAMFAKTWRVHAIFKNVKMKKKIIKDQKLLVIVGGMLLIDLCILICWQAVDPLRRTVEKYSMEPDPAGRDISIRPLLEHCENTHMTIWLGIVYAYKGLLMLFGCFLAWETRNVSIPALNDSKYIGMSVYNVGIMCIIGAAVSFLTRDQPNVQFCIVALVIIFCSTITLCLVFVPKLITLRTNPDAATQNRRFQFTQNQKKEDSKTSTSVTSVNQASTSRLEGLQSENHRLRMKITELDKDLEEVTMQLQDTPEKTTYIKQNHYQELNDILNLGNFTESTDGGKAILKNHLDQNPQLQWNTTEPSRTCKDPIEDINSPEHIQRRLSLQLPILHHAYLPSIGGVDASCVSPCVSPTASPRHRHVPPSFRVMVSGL
Chain of Ca2+ channel (L, diltiazem site) (benzothiazepines) (P22002 whole entry): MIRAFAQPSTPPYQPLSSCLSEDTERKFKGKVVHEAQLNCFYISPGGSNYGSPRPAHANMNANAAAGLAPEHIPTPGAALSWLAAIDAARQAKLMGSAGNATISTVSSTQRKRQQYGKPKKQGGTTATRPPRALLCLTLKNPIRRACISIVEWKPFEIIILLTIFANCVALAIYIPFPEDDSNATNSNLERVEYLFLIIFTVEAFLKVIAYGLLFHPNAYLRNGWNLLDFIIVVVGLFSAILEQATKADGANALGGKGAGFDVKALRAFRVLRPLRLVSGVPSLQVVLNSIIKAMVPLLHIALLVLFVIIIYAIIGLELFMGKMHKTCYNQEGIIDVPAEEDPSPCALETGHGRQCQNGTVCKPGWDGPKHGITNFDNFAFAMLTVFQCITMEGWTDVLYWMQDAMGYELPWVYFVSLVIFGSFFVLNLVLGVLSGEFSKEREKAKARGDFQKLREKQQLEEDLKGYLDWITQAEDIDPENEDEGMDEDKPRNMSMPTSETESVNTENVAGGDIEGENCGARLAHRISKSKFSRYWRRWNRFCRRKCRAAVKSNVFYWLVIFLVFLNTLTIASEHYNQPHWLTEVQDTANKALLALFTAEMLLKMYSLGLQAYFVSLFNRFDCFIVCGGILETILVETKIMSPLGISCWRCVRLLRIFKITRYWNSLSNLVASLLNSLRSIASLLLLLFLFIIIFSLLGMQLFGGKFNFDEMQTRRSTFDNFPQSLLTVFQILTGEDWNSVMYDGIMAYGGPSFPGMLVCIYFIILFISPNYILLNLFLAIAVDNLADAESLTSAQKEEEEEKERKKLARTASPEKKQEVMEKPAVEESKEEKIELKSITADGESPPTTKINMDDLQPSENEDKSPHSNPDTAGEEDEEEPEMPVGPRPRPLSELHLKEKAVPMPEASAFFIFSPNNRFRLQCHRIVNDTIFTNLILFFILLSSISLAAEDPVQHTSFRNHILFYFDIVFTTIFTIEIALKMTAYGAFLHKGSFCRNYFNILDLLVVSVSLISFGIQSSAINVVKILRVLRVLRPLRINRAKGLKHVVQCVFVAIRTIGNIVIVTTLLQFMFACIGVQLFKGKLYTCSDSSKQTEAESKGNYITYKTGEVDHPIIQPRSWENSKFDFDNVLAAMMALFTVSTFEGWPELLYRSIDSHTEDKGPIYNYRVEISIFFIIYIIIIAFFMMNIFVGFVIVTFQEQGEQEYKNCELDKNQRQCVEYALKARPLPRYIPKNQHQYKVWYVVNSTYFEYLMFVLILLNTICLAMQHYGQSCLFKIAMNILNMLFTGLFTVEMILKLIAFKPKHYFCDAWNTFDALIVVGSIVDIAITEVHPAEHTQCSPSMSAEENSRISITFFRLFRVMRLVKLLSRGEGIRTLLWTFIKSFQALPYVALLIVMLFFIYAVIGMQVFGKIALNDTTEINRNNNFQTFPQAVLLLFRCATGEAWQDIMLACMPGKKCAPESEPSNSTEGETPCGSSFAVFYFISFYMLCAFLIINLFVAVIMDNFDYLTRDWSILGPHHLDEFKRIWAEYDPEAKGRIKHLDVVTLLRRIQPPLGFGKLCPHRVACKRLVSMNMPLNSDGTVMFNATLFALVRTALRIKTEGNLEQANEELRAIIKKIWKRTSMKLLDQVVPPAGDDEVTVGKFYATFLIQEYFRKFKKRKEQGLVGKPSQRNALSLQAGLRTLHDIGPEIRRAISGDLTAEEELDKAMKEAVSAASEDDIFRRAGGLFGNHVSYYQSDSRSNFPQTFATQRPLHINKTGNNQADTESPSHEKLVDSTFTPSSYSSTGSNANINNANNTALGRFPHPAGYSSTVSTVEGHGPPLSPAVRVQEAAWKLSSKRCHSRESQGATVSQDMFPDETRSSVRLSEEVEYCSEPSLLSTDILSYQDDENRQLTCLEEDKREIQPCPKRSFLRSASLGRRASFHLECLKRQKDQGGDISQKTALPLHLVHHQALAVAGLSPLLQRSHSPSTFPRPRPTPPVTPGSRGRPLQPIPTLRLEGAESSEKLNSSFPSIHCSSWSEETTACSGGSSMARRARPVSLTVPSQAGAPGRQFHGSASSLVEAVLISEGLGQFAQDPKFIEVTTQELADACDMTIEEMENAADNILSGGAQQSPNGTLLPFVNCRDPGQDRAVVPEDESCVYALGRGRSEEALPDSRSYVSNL
T4 sequence (P48039 whole entry): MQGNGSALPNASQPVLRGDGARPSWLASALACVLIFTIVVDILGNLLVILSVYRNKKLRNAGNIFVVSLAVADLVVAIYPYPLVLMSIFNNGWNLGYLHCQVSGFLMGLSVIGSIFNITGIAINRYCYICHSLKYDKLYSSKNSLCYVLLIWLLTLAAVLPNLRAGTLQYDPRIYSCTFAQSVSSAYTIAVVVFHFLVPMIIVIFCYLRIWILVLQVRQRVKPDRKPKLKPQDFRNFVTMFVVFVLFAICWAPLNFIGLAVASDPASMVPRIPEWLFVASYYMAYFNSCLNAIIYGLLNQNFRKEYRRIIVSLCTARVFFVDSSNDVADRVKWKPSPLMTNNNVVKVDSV

Take `C[C@@H](O)[C@@H]1NC(=O)[C@H](Cc2ccc(O)cc2)NC(=O)[C@@H]2C[C@@H](O)CN2C(=O)[C@H](CC(N)=O)NC(=O)[C@@H]2CSSC[C@@H]3NC(=O)[C@H](CO)NC(=O)[C@H](CO)NC(=O)CNC(=O)[C@@H]4C[C@@H](O)CN4C(=O)[C@H](CO)NC(=O)[C@H](CCCCN)NC(=O)[C@@H](N)CSSC[C@H](NC(=O)[C@H](CSSC[C@@H](C(=O)N[C@@H](Cc4ccc(O)cc4)C(N)=O)NC(=O)[C@H](CCCN=C(N)N)NC(=O)[C@H](CCCCN)NC1=O)NC(=O)[C@H](CC(N)=O)NC(=O)[C@H](Cc1ccc(O)cc1)NC(=O)[C@H](CO)NC(=O)[C@H]([C@@H](C)O)NC(=O)[C@@H]1C[C@@H](O)CN1C(=O)[C@H](CO)NC3=O)C(=O)N[C@@H](CCCN=C(N)N)C(=O)N[C@@H](CO)C(=O)N2` [ω-conotoxin GVIA, reference compound]: on Ca2+ channel (N), it took 0.0012 nM to reach half-maximal inhibition (IC50).
For the molecule (+)butaclamol, at D2S (h), the nH is 1.1.
`O=C(c1ccc(F)cc1)C1CCN(CCn2c(=O)[nH]c3ccccc3c2=O)CC1` [ketanserin, reference compound] had a nH at 5-HT2A (h) of 1.4.
`CN(C)CCCN1c2ccccc2CCc2ccccc21` [imipramine, reference compound]: the immobility time entry in the assay with CD-1 mice was “decreased immobility time”. In addition, the nH on 5-HT transporter (h) came out at 0.9.
For `OCCN(CCO)c1nc(N2CCCCC2)c2nc(N(CCO)CCO)nc(N3CCCCC3)c2n1` [dipyridamole], on PDE5 (h) (non-selective), the nH is 1.7 and 1.0.
In turn, `COc1ccc(C[C@@H]2NC(=O)CC3(CCCCC3)SSC[C@@H](C(=O)N3CCC[C@H]3C(=O)N[C@@H](CCCNC(=N)N)C(=O)NCC(N)=O)NC(=O)[C@H](CC(N)=O)NC(=O)[C@H](CCC(N)=O)NC(=O)[C@H](Cc3ccccc3)NC2=O)cc1` [[d(CH2)51,Tyr(Me)2]-AVP, reference compound] (Y(Me)FQNCPRG-NH2; linker N-5 via X1 (inferred)) gave a nH at V1a (h) of 0.9.
In the case of `Oc1ccc(-c2nc(-c3ccncc3)c(-c3ccc(F)cc3)[nH]2)cc1` [SB202190, reference compound], the nH at p38α kinase (h) was 1.4.
At MT1 (ML1A) (h), `COc1ccc2[nH]cc(CCNC(C)=O)c2c1` [melatonin, reference compound] showed a nH of 1.0. Also, at MT3 (ML2), the IC50 – broadly, the concentration at which inhibition is half-maximal – was 38 nM and 260 nM; the Ki (in general, a dissociation constant, usually derived from enzyme kinetics or from competition with a known ligand) is 37 nM and 250 nM.
In turn, `COc1ccccc1CNCCCCCCNCCCCCCCCNCCCCCCNCc1ccccc1OC` [methoctramine] registered a nH at M2 (h) of 0.9.
The molecule `C[C@H](NC[C@H](O)CP(=O)(O)CC1CCCCC1)c1ccc(Cl)c(Cl)c1` [CGP 54626] yielded a nH at GABAB(1b) (h) of 0.9.
For `Cc1[nH]c(=O)c(C#N)cc1-c1ccncc1` [milrinone, reference compound], at PDE3A (h), the nH amounted to 1.0.
Take `CNC(=O)[C@H](Cc1c[nH]c2ccccc12)NC(=O)[C@@H](CC(=O)NO)CC(C)C` [GM6001, reference compound]: the nH on MMP-9 (h) is recorded as 1.6.
In the case of `C[C@@H]1O[C@@H](O[C@H]2C[C@@H](O)[C@]3(CO)[C@H]4[C@H](O)C[C@]5(C)[C@@H](C6=CC(=O)OC6)CC[C@]5(O)[C@@H]4CC[C@]3(O)C2)[C@H](O)[C@H](O)[C@H]1O` [ouabain, reference compound], inhibition at ATPase (Na+/K+) was half-maximal at 1200 nM (IC50).
As to `COc1ccc([C@@H]2Sc3ccccc3N(CCN(C)C)C(=O)[C@@H]2OC(C)=O)cc1` [diltiazem, reference compound], the nH in [1] is listed as 1.2.
Take `CN[C@@H]1C[C@H]2O[C@@](C)([C@@H]1OC)n1c3ccccc3c3c4c(c5c6ccccc6n2c5c31)C(=O)NC4` [staurosporine, reference compound]: the nH amounted to 1.4 in assay [2] and 1.2 at ZAP70 kinase (h).
On to `c1ccc(C2(N3CCCCC3)CCCCC2)cc1` [PCP, Phencyclidine, reference compound], for which the locomotor activity result in the assay on NMRI mice is “substantially increased activity”.
At 5-HT3 (h), `CN1[C@@H]2CC[C@H]1C[C@@H](OC(=O)c1cc(Cl)cc(Cl)c1)C2` [MDL 72222] yielded a nH of 1.1.
